This is an account of results in publication PMC9763021, “Comprehensive Assessment of Biomolecular Interactions of Morpholine-Based Mixed Ligand Cu(II) and Zn(II) Complexes of 2,2′-Bipyridine as Potential Anticancer and SARS-CoV-2 Agents: A Synergistic Experimental and Structure-Based Virtual Screening” (Bioinorganic Chemistry and Applications, 2022).

Assay [1] has as its system CT-DNA. Briefly: DNA thermal denaturation (biothermodynamic properties). The class given is binding, calf thymus. As to conditions: for Tm (K) / Tm °C of DNA-compound adduct: 260 nm, [DNA]/[Complex] = 1; for Tm °C of DNA-compound adduct: CT-DNA alone 68°C; for ΔH°: Van't Hoff equation; for ΔTm °C: versus free DNA (68°C); for ΔG°: −R.Tm.lnKm. As to the method: Thermal denaturation characteristics were executed by a UV-visible spectrophotometer in a temperature-controlled sample container in both the presence and absence of the substances. In a Tris-HCl buffer solution with a pH of 7.4, all substances were incubated with CT-DNA in a 1 : 1 ratio. Temperature increases of two degrees Celsius per minute were applied to test substances in the range of 25 to 100°C, and the changes in absorbance at 260 nm were carefully scrutinized.
DNA denaturation contributes to the root cause of several chronic diseases, hereditary disorders, and a reduction in the ability of DNA repair to work properly. The biothermodynamic properties were further supported to determine the ability of stabilization of the double-standard DNA, and it offers details on the structural alterations, the degree of the DNA-compound system, the external binding-mediated neutralization of phosphate charges on DNA, and the stacking interactions, all of which work together to raise the DNA's melting point. […] The Van't Hoff (9) and Gibbs Helmholtz equations (10) were supportive in evaluating the biothermodynamic parameters, which are enclosed in Table 2. […] The influencing factors between test compounds and DNA mostly depend on the type of interaction mode. Because of the driving forces, H-bonds, weak Van der Waals forces, and electrostatic modes of binding all occur while the enthalpy is favourable. Hydrophobic forces induce binding while entropy is favourable; on the other hand, the loss of structural degrees of freedom leads to undesirable entropic changes. As per Ross and colleagues, the findings for ΔH° and ΔS° can alternatively be derived in the following favourable sequence. If ΔH° > 0 and ΔS° > 0, this attributes intercalation due to hydrophobic forces of attraction. If ∆H° < 0 and ΔS° < 0, this involves weak Van der Waals forces of attraction and H-bonding interactions. On the other hand, if ΔH° < 0 (or), ΔH°≈0 and ∆S° > 0, this indicates the electrostatic mode of binding possible between DNA and compounds [28, 68]. […] Furthermore, it is widely acknowledged that the hydration and generation of the compound-deoxyribonucleic acid adduct system via the counter ion liberating mechanism are highly dependent on the hydrophobic forces of attraction.

A short description of assay [2]: DPPH radical scavenging assay. In kind it is biochemical. The conditions noted are these: for % Inhibition DPPH: 517 nm. As to the method:
(§1) All samples were evaluated for their scavenging ability with the help of UV-visible spectrophotometer at different concentrations of 40, 80, 120, 160, 200, and 240 μM [6, 28]. While performing the antioxidant properties for the DPPH, hydroxyl, superoxide, and nitric oxide radical scavenging, the absorbance at 517, 230, 590, and 546 nm, respectively, was closely observed. In addition, the observed IC50 values of all samples were compared with ascorbic acid.
The colour of an aqueous or methanol solution changes from deep purple to pale yellow when DPPH, a stable chromogen free radical, combines with an antioxidant molecule, which means that DPPH quickly absorbs the hydrogen or electrons from the donor groups. In this case, for the baseline correction, a blank DPPH solution in the absence of a test compound was employed, and 517 nm (ε = 8320 M^−1·cm^−1) was attained to have a significant absorption maximum. […] The DPPH radicals are reduced by an antioxidant compound (AH), in which the reduction of electronic absorbance for each compound was vigilantly noted at 517 nm. The capacity to block radicals improves as the sample concentration increases. The assessed percentage of maximum inhibition for all substances was found at 240 μM in the subsequent order: (ascorbic acid) (85.65) > (1a) 68.64 > (2a) 59.55 > (HL) 52.45. […] Moreover, the % of scavenging or maximum inhibition for all substances is estimated with the aid of equation (44) (Table S14).(43) Scavanging%=A0−AS/A0×100
(The DPPH test is a chemical assay of radical scavenging.)

The nature of assay [3]: Nitric oxide scavenging assay. In kind it is biochemical. As to conditions: for % Inhibition nitric oxide: 546 nm. The method, then: as §1
The diffusible nitric oxide free radical is a crucial chemical mediator, which assists in overcoming diverse chronological human diseases. The NO free radical scavenging potential for all test samples was also carried out at 546 nm. It monitored the alterations in electronic absorption intensity of the nitric oxide radical inhibition outcome concerning the sample concentrations. When the test sample concentration rises, the nitric oxide free inhibition effectiveness also increases. The measured % of nitric oxide radical scavenging capability for all samples at 240 μM was obtained in the subsequent order (ascorbic acid) 72.73 > (1a) 65.47 > (2a) 58.43 > (HL) 51.62.

The subject of assay [4] is Shigella flexneri. Briefly: Agar disc diffusion, strain E. In kind it is cell-based. Further details: (inhibition %): concentration or dose not given beside the values. The conditions noted are these: for diameter of the clear zone inhibition: control = 6 mm. The method, then: In-vitro antimicrobial properties were evaluated for all samples by the agar disc diffusion method towards different fungal and bacterial strains. Additionally, the reported inhibition zone values were comparatively analyzed with the standard antifungal drugs ketoconazole and amphotericin B as well as the standard antibiotic medications streptomycin and amikacin.
The current research has a curious focus on the in vitro antimicrobial properties of biological systems because these studies are crucial for developing effective antibacterial and antifungal medications. […] It can also be spelled out based on the chelation theory proposed by Overtone and Tweedy. Chelation theory points out that the partial exchanging of the positive charge of the metal center with donor moieties, and overlap of the ligand orbitals will reduce the greater degree of the metal ion's polarity, which ultimately rises the delocalization of π and d electrons over the full chelated ring system. By raising the size of the metal ion due to the retarding of polarization, chelation may also enhance the complexes' lipophilic characteristics, which further stimulate the lipid membrane permeability and break down the bacteria' enzymes responsible for cell wall formation, therefore slowing down the regular cell processes. By preventing the production of cell walls/proteins/DNA, including by obstructing folate metabolism and the cytoplasmic membrane, antimicrobial drugs frequently either fully eliminate microbes or only prevent their cell growth. Additionally, the samples' mode of action may be employed in disrupting the cell's respiration process by forming an H-bond during the morpholine-fused iminic group coordinated with the active metal center of its components, inhibiting proliferation of the cell. […] The difference in the antimicrobial efficacy of some of the compounds towards various microorganisms influences on the impermeability of the cells of the germs or the diversity of ribosomes of the microbes. The % of the inhibition of all substances is estimated from (45) (Table 9).
(A, B, C, D, and E are represented as gram negative bacteria species Escherichia coli, Salmonella enteric serovar typhi, Salmonella enteric serovar typhi, Pseudomonas aeruginosa, and Shigella flexneri, respectively. F & G are denoted as gram positive bacteria species Staphylococcus aureus and Bacillus cereus. H, I, and J are represented as fungal strains Aspergillus niger, Candida albicans, and Mucor indicus. Standard drugs for bacterial strains: Amikacin & Streptomycin Standard drugs for fungal strains: Ketoconazole and Amphotericin B. [Control (DMSO) = 6 mm].(44) Inhibition %=T–C/T×100, where T and C are represented as the diameter of microbial growth of the sample plates and the control plate (6 mm), respectively. Error limits ±2.5–5.0% (P ≤ 0.05).

For the compound `[Cu+2].[O-]c1ccccc1N=Cc1ccc(N2CCOCC2)cc1.[O-]c1ccccc1N=Cc1ccc(N2CCOCC2)cc1.c1ccc(-c2ccccn2)nc1` [(1a), [Cu(L)2(bpy)]], the “ΔS°” value in assay [1] is recorded as “–6.9577 cal mol^–1”. Besides, the “Tm (K)” value in assay [1] is listed as 353 K. Besides, in assay [1], the “Tm °C of DNA-compound adduct” value came to 80 °C. In assay [1], the “Binding constant Kr at 298 K” value is 1.9000 × 10^4 M^–1. In addition, the “ΔH°” value in assay [1] is recorded as “–7.9071 kcal mol^–1”. In assay [1], the “ΔTm °C” value turned out to be 12 °C. In addition, the “ΔG°” value in assay [1] was “–5.4511 kcal mol^–1”. Also, the IC50 was determined as 160 µM in assay [2] and 200 µM in assay [3]. For the same compound, the “% Inhibition DPPH” value is on record as 17.53% in assay [2] (40 µM); 30.62% in assay [2] (80 µM); 35.74% in assay [2] (120 µM); 51.72% in assay [2] (160 µM); 57.95% in assay [2] (200 µM); 68.64% in assay [2] (240 µM). The “% Inhibition nitric oxide” value in assay [3] (40 µM) turned out to be 17.07%; in assay [3] (80 µM), 24.95%; in assay [3] (120 µM), 35.06%; in assay [3] (160 µM), 42.14%; in assay [3] (200 µM) it was 51.35%; in assay [3] (240 µM) it was 65.47%. Further, in assay [4], the “(inhibition %)” value worked out at 45%. The “diameter of the clear zone inhibition” value in assay [4] was 11 mm.
Turning to `Oc1ccccc1N=Cc1ccc(N2CCOCC2)cc1` [(HL), 2-(4-morpholinobenzylideneamino)phenol], the “ΔS°” value in assay [1] is given as “–13.7851 cal mol^–1”. Moreover, the “Tm (K)” value in assay [1] was 347 K. In addition, in assay [1], the “Tm °C of DNA-compound adduct” value turned out to be 74 °C. Besides, the “Binding constant Kr at 298 K” value in assay [1] is recorded as 1.5169 × 10^4 M^–1. In addition, the “ΔH°” value in assay [1] is reported as “–9.8083 kcal mol^–1”. Further, in assay [1], the “ΔTm °C” value was 6 °C. In assay [1], the “ΔG°” value was “–5.0249 kcal mol^–1”. Also, the “% Inhibition DPPH” value in assay [2] (40 µM) worked out at 09.45%; in assay [2] (80 µM), 15.21%; in assay [2] (120 µM), 26.36%; in assay [2] (160 µM) it was 34.56%; in assay [2] (200 µM), 39.41%; in assay [2] (240 µM) it was 52.45%. The “% Inhibition nitric oxide” value in assay [3] (40 µM) came out at 11.42%; in assay [3] (80 µM), 18.26%; in assay [3] (120 µM) it was 24.28%; in assay [3] (160 µM) it was 33.21%; in assay [3] (200 µM) it was 40.53%; in assay [3] (240 µM), 51.62%. The “(inhibition %)” value in assay [4] is on record as 57%. The “diameter of the clear zone inhibition” value in assay [4] was found to be 14 mm.
In the case of `[O-]c1ccccc1N=Cc1ccc(N2CCOCC2)cc1.[O-]c1ccccc1N=Cc1ccc(N2CCOCC2)cc1.[Zn+2].c1ccc(-c2ccccn2)nc1` [(2a), [Zn(L)2(bpy)]], the “ΔS°” value in assay [1] is given as “–8.4501 cal mol^–1”. Besides, in assay [1], the “Tm (K)” value was found to be 351 K. Besides, the “Tm °C of DNA-compound adduct” value in assay [1] was 78 °C. Moreover, the “Binding constant Kr at 298 K” value in assay [1] is listed as 1.8287 × 10^4 M^–1. In assay [1], the “ΔH°” value was “–8.3292 kcal mol^–1”. The “ΔTm °C” value in assay [1] was 10 °C. For the same compound, in assay [1], the “ΔG°” value is on record as “–5.3632 kcal mol^–1”. For the same compound, the “% Inhibition DPPH” value in assay [2] (40 µM) was 12.75%; in assay [2] (80 µM), 24.73%; in assay [2] (120 µM) it was 30.02%; in assay [2] (160 µM), 39.68%; in assay [2] (200 µM), 48.79%; in assay [2] (240 µM), 59.55%. Moreover, the “% Inhibition nitric oxide” value turned out to be 14.37% in assay [3] (40 µM); 21.59% in assay [3] (80 µM); 28.87% in assay [3] (120 µM); 37.69% in assay [3] (160 µM); 44.73% in assay [3] (200 µM); 58.43% in assay [3] (240 µM). Besides, in assay [4], the “(inhibition %)” value worked out at 45%. For the same compound, in assay [4], the “diameter of the clear zone inhibition” value came out at 11 mm.

A word on the IC50: it is the concentration at which inhibition is half-maximal.
